From ChEMBL document CHEMBL5465560, “Selectivity Literature for EUbOPEN Chemogenomic Library” (2024)
Values belong to the compound of their own block, whether it stands above or below them.

Key:
[1] = target: Myosin light chain kinase 2, skeletal/cardiac muscle (Homo sapiens) (UniProt Q9H1R3); experiment: Selectivity interaction (Kinase panel (literature)) EUB0001199aCl MYLK2; details: at 1 µM
[2] = target: Calcium/calmodulin-dependent protein kinase kinase 1 (Homo sapiens) (UniProt Q8N5S9); experiment: Selectivity interaction (LanthaScreen Eu Kinase Binding Assay) EUB0001632a CAMKK1; details: at 10 µM
[3] = target: Serine/threonine-protein kinase PLK2 (Homo sapiens, UniProt Q9NYY3); experiment: Selectivity interaction (KinomeScan (DiscoverX)) EUB0001079a PLK2; details: at 1 µM
Sequence of Serine/threonine-protein kinase PLK2 (Q9NYY3 whole entry, looked up): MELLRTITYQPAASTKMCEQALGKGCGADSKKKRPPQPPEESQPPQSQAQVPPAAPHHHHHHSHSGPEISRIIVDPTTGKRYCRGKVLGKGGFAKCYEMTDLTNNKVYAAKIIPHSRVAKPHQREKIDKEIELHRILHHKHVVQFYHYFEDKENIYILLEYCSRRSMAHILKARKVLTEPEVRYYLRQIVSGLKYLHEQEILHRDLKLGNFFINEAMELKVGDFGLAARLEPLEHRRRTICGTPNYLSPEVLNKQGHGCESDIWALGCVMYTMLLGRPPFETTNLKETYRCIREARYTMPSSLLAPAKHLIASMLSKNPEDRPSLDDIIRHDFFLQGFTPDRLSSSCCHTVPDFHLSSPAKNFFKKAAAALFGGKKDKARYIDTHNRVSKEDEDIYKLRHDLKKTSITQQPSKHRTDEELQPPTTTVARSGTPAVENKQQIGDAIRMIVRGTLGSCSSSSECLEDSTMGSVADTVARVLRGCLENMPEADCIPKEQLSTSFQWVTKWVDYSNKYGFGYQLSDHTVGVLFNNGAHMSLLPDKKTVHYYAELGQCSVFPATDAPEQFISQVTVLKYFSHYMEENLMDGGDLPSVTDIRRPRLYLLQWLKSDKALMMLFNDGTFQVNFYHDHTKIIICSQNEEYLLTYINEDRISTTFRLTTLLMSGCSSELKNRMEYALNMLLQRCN

[4] = target: Serine/threonine-protein kinase 32B (Homo sapiens) (UniProt Q9NY57); experiment: Selectivity interaction (KinomeScan (DiscoverX)) EUB0001079a STK32B; details: at 1 µM
Sequence of Serine/threonine-protein kinase 32B (Homo sapiens) (Q9NY57 whole entry): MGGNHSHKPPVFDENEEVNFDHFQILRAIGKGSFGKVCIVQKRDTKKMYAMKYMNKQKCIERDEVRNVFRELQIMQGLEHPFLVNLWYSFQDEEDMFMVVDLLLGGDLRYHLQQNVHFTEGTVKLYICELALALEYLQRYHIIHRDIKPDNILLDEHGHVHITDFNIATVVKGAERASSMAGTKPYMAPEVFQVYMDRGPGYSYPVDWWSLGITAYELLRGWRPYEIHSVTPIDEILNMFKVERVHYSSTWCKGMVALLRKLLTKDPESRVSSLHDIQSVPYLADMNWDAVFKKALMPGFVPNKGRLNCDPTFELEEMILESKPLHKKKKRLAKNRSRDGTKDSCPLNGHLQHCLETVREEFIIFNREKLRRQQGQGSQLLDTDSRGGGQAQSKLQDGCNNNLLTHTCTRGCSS

[5] = target: T1, Serine/threonine-protein kinase 3 (Homo sapiens) (UniProt Q13188); experiment: Selectivity interaction (ProQinase) EUB0000171b STK3
T1 sequence (whole entry): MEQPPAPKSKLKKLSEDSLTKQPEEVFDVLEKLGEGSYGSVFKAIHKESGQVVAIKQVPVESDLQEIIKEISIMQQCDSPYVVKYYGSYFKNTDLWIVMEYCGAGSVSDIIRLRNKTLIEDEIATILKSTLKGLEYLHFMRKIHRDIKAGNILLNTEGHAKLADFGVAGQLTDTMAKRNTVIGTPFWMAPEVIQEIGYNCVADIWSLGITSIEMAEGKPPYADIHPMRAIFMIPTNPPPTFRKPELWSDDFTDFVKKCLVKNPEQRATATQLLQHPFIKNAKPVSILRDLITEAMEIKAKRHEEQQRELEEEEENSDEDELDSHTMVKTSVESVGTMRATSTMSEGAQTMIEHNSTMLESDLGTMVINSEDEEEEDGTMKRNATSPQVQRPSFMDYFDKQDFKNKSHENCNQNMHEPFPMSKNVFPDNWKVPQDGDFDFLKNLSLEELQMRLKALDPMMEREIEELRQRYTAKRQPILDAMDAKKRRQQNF

[6] = target: TRAF2 and NCK-interacting protein kinase (Homo sapiens) (UniProt Q9UKE5); experiment: Selectivity interaction (KinomeScan (DiscoverX)) EUB0001619a TNIK; details: at 1 µM
Sequence of TRAF2 and NCK-interacting protein kinase (Homo sapiens) (Q9UKE5 whole entry, looked up): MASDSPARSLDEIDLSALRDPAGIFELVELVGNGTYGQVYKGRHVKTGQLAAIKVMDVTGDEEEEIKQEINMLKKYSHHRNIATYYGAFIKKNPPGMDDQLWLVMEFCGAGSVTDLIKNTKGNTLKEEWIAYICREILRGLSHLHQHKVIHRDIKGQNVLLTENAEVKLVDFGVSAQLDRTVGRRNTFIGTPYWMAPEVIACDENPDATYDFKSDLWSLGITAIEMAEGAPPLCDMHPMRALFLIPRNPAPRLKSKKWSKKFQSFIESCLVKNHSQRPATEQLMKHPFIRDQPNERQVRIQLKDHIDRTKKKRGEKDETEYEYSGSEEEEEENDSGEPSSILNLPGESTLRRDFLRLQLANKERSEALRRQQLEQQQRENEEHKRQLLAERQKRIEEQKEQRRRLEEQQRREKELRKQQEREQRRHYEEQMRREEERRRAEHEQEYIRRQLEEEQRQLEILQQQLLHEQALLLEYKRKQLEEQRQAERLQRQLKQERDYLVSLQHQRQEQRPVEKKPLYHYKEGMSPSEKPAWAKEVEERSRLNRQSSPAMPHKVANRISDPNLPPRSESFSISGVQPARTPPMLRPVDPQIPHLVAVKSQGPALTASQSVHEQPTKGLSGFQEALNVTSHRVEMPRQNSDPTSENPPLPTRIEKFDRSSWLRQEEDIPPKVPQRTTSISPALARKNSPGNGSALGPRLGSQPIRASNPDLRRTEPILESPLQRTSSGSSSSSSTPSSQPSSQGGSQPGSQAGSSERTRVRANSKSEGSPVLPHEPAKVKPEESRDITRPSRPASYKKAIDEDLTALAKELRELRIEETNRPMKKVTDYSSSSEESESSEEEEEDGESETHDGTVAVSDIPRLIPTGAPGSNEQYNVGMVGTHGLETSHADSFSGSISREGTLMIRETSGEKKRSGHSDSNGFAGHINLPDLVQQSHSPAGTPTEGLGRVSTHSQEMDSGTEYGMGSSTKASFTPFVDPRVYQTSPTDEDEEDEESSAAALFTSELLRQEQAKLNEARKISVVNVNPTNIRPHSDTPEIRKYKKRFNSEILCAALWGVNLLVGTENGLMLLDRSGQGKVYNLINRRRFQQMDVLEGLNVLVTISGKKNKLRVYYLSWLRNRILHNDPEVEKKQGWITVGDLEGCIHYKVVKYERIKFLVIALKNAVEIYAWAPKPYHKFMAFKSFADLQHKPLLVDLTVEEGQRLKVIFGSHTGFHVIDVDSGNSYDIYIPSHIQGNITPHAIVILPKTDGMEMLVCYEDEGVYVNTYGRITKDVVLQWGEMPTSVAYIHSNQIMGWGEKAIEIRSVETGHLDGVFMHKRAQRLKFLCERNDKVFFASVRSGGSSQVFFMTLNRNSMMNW

[7] = target: MAP kinase-interacting serine/threonine-protein kinase 1 (Homo sapiens) (UniProt Q9BUB5); experiment: Selectivity interaction (KinomeScan (DiscoverX)) EUB0001619a MKNK1; details: at 1 µM
Sequence of MAP kinase-interacting serine/threonine-protein kinase 1 (Homo sapiens) (Q9BUB5 whole entry, looked up): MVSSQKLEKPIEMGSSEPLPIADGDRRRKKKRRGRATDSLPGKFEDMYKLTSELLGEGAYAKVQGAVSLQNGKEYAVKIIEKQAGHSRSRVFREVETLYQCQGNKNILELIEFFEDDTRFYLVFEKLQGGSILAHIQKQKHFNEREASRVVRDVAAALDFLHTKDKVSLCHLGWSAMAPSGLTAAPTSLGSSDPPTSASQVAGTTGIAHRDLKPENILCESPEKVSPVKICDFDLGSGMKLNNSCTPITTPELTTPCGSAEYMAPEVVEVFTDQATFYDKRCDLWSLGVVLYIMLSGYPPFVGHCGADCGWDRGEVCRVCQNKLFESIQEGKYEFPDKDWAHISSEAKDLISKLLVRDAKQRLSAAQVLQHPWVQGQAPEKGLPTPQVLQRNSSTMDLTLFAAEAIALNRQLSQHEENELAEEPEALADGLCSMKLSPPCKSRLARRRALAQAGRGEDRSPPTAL

[8] = target: Ribosomal protein S6 kinase alpha-2 (Homo sapiens) (UniProt Q15349); experiment: Selectivity interaction (ActivX KiNativ screen (ex vivo kinase selectivity in human PBMCs)) EUB0001619a RPS6KA2; assay type: cell-based; details: PBMC, at 1 µM
Sequence of Ribosomal protein S6 kinase alpha-2 (Homo sapiens) (Q15349 whole entry): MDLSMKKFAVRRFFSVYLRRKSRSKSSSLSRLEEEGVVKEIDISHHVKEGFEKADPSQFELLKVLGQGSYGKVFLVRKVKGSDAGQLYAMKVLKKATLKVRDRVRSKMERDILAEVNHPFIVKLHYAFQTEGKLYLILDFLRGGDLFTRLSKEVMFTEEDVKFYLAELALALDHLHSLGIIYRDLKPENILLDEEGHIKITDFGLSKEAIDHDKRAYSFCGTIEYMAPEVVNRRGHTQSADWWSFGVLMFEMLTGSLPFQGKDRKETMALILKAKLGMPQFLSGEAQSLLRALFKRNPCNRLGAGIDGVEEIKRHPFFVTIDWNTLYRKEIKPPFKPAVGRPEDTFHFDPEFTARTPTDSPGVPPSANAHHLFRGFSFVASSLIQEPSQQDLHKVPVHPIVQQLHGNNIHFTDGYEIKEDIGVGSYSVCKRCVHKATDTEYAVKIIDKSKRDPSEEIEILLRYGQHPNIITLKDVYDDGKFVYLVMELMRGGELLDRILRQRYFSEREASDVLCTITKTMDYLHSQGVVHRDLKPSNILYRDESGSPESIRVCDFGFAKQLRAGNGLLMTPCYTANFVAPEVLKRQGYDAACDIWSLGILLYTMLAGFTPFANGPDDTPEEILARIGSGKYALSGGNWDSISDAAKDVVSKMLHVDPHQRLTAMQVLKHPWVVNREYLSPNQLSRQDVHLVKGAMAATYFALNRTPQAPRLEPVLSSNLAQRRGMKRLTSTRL

[9] = target: T2, Serine/threonine-protein kinase DCLK1 (Homo sapiens) (UniProt O15075); experiment: Selectivity interaction (KinomeScan (DiscoverX)) EUB0000618a DCLK1; details: at 10 µM
T2 sequence (whole entry): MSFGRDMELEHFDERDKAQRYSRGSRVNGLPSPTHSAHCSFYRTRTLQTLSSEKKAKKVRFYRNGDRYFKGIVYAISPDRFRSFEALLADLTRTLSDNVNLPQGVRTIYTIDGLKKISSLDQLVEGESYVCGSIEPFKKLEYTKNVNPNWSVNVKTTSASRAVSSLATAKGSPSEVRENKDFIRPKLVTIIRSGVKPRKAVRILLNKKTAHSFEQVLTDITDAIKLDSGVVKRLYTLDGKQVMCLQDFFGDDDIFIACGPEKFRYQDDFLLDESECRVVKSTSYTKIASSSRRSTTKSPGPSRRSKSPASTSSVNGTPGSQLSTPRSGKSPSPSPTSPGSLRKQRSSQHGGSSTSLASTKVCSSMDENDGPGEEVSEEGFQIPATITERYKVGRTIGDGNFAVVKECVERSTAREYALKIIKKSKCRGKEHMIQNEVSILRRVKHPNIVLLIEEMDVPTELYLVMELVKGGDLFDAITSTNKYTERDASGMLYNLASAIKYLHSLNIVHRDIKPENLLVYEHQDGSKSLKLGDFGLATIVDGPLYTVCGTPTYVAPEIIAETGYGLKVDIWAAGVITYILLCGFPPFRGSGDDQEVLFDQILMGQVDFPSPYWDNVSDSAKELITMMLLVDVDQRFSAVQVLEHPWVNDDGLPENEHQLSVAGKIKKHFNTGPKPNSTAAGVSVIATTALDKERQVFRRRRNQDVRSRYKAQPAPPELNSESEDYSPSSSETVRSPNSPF

[10] = target: T3, Aurora kinase A (Homo sapiens) (UniProt O14965); experiment: Selectivity interaction (KinomeScan (DiscoverX)) EUB0000618a STK6; details: at 10 µM
T3 sequence (whole entry): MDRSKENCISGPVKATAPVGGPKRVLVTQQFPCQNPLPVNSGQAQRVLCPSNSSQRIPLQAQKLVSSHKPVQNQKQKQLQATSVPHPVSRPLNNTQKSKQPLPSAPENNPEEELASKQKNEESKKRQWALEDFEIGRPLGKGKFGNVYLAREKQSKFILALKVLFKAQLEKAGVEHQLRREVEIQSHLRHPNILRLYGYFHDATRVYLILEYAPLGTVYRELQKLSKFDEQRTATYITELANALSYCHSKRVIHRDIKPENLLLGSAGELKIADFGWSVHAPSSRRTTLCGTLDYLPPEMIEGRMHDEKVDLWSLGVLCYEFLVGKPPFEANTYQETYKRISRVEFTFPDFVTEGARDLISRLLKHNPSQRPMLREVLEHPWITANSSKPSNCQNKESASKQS

[11] = target: LIM domain kinase 1 (Homo sapiens) (UniProt P53667); experiment: Selectivity interaction (KinomeScan (DiscoverX)) EUB0000618a LIMK1; details: at 10 µM
Sequence of LIM domain kinase 1 (Homo sapiens) (P53667 whole entry, looked up, the tested form may be a part): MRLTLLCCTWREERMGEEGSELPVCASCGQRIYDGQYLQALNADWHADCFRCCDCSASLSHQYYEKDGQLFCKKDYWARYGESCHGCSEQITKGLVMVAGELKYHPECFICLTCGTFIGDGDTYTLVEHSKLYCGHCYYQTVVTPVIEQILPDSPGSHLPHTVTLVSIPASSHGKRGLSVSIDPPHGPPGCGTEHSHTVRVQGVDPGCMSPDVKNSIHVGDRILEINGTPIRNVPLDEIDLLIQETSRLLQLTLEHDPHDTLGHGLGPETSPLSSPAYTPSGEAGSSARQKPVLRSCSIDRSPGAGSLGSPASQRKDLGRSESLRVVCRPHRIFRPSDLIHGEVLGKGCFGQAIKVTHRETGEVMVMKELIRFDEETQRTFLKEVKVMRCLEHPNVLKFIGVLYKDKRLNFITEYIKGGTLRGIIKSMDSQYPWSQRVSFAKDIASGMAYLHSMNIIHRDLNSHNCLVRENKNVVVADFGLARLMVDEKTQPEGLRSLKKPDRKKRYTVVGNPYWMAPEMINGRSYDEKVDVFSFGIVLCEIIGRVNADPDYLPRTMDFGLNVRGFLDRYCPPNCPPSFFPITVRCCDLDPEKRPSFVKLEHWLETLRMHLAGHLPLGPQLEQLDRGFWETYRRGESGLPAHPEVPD

Sequence of Myosin light chain kinase 2, skeletal/cardiac muscle (Homo sapiens) (Q9H1R3 whole entry): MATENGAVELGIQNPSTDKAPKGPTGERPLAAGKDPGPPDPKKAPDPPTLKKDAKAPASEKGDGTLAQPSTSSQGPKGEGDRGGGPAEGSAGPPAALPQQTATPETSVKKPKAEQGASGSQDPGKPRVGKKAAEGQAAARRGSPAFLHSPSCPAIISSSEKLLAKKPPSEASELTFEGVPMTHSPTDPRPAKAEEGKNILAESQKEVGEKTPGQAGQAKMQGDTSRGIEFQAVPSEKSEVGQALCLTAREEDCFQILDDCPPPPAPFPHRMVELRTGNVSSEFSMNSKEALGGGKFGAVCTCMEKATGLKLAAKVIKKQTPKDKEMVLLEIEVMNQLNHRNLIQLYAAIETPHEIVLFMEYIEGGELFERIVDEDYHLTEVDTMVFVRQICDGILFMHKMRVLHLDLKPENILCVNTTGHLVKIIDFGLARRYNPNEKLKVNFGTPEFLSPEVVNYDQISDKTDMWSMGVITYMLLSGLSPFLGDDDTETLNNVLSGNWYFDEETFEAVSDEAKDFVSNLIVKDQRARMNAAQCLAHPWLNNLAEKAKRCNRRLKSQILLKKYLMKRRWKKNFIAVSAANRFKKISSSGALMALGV

- % of inhibition [1]: 5%
SMILES: CN1Cc2nccc(-c3cn(C)nc3-c3ccc(F)cc3)c2C1=O

- % of inhibition [2]: -49.1%
SMILES: Cn1cc(-n2cnc3c(NCc4nc5cc(Cl)c(Cl)cc5[nH]4)nc(N4CCOCC4)nc32)cn1

SMILES: Nc1cnc(N2CCc3cc(S(=O)(=O)Nc4c(F)cc(Cl)cc4F)cc(N4CCCC4=O)c32)nc1 [TP-020n]
- % of control [3]: 100%
- % of control [4]: 74%

- % of control ([5]; at 1 µM): 83%
- % of control ([5]; at 5 µM): 69%
SMILES: C=CC(=O)Nc1cccc(C(=O)Nc2ccc(Nc3cc(-c4[nH]c(SC)nc4C)ccn3)cc2)c1

SMILES: N#Cc1cccc(-c2c[nH]c3ncnc(N4CCOCC4)c23)c1
- % of control [6]: 45%
- % of control [7]: 100%
- % of inhibition [8]: -3%

SMILES: O[C@H]1CC[C@H](Nc2ncc3nc(Nc4c(F)cc(F)cc4F)n([C@H]4CCOC4)c3n2)CC1
- % of control [9]: 81%
- % of control [10]: 91%
- % of control [11]: 35%
